In publication PMC9188596, “Structural basis of resistance to herbicides that target acetohydroxyacid synthase” (Nature Communications, 2022):
Values joined by “and” are separate entries in the source; they are usually repeats but may differ in a detail not shown here. Identical values can stand only once. Like-named read-outs stand apart in the source and are kept apart here.

How the values were obtained:
WT AtAHAS [1] = molecular target: T1, WT AtAHAS (Arabidopsis thaliana, UniProt P17597); assay: Ki of herbicides, continuous spectrophotometric AHAS assay; assay type: biochemical
Procedure: (§1) Standard assays were performed using a continuous spectrophotometric method measuring the disappearance of pyruvate. The standard buffer contained 50 mM potassium phosphate, pH 7.2, 1 mM ThDP, 10 mM MgCl2, and 10 µM FAD. The concentration of pyruvate was in the range 100–160 mM, as described in the text, methods, or figure legends.
(§2) Supplementary Figure 6. Measurement of the Ki values for WT AtAHAS and the mutants.
(§3) The error bars represent the standard error of the mean of two independent replicates. [I] =
(§4) inhibitor concentration. Source data are provided with this paper.
(§5) (1 picture or pasted object on this page, not shown here)

AtAHAS P197L mutant [2] = molecular target: T2, AtAHAS P197L mutant (Arabidopsis thaliana, UniProt P17597, P197L); assay: biochemical
Procedure: as §1, §2, §3, §4, §5

AtAHAS P197T mutant [3] = molecular target: T3, AtAHAS P197T mutant (Arabidopsis thaliana, UniProt P17597, P197T); assay: biochemical
Procedure: as §1, §2, §3, §4, §5

AtAHAS S653T mutant [4] = molecular target: T4, AtAHAS S653T mutant (Arabidopsis thaliana, UniProt P17597, S653T); assay: biochemical
Procedure: as §1, §2, §3, §4, §5

AtAHAS W574L mutant [5] = molecular target: T5, AtAHAS W574L mutant (Arabidopsis thaliana, UniProt P17597, W574L); assay: biochemical
Procedure: as §1, §2, §3, §4, §5

WT AtAHAS [6] = molecular target: T1, WT AtAHAS; assay type: biochemical
Procedure: as §1
(§6) AtAHAS was assayed in the standard assay buffer containing 160 mM pyruvate, at 30 °C. For AtAHAS activation the progress curve corresponding to the lag-phase was fitted to Eq. (8) of Lonhienne et al.[14]. For the time dependent accumulative inhibition of AtAHAS the progress curves were fitted to Equation 9 of Lonhienne et al.[12].
(§7) Supplementary Figure 8. Measurement of the rate constants of accumulative inhibition for WT AtAHAS and its mutants. The progress curves were fitted to the equation of accumulative inhibition (Equation 7 2). The rate constants of enzyme inactivation ( kiapp) and enzyme recovery (k3) were measured in triplicate. Source data are provided with this paper.

AtAHAS P197L mutant [7] = molecular target: T2, AtAHAS P197L mutant; assay type: biochemical; settings: NAI = no accumulative inhibition detected
Procedure: as §1, §6
as §7, with “paper. […]” for “paper.”

AtAHAS P197T mutant [8] = molecular target: T3, AtAHAS P197T mutant; assay type: biochemical; settings: P197T, NAI = no accumulative inhibition detected
Procedure: as §1, §6
as §7, with “paper. […]” for “paper.”

AtAHAS S653T mutant [9] = molecular target: T4, AtAHAS S653T mutant; assay type: biochemical
Procedure: as §1, §6
as §7, with “paper. […]” for “paper.”

AtAHAS W574L mutant [10] = molecular target: T5, AtAHAS W574L mutant; assay type: biochemical; settings: NAI = no accumulative inhibition detected
Procedure: as §1, §6
as §7, with “paper. […]” for “paper.”

WT AtAHAS [11] = molecular target: T1, WT AtAHAS; settings: ± standard error of the mean, cited from earlier work
[12] = Ki (Supplementary Figure 6), P197L, fit of % activity remaining vs [I], two independent replicates
[13] = Ki, P197L mutant, ± standard error of the mean
[14] = Ki (Supplementary Figure 6), P197T, fit of % activity remaining vs [I], two independent replicates
[15] = Ki, P197T mutant, ± standard error of the mean
[16] = Ki (Supplementary Figure 6), S653T, fit of % activity remaining vs [I], two independent replicates
[17] = Ki, S653T mutant, ± standard error of the mean
[18] = Ki, W574L mutant, ± standard error of the mean
[19] = Ki (Supplementary Figure 6), W574L, fit of % activity remaining vs [I], two independent replicates
[20] = individual replicate of triplicate
[21] = S653T, 160 mM pyruvate, 30 °C, ± SEM
[22] = S653T, individual replicate of triplicate

## COc1cc(OC)n2nc(S(=O)(=O)Nc3c(Cl)ccc(C)c3Cl)nc2n1 [MT, metosulam]
WT AtAHAS [1]; Ki (Supplementary Figure 6), Wild type AtAHAS, fit of % activity remaining vs [I], two independent replicates
  Ki: 28.7 ± 11.2 nM
WT AtAHAS [1]; Ki, WT AtAHAS, ± standard error of the mean
  Ki: 29 ± 11.2 nM
AtAHAS P197L mutant [2]; [12]
  Ki: 1320 ± 131 nM
AtAHAS P197L mutant [2]; [13]
  Ki: 1320 ± 130 nM
AtAHAS P197T mutant [3]; [14]
  Ki: 1130 ± 130 nM
AtAHAS P197T mutant [3]; [15]
  Ki: 1130 ± 130 nM
AtAHAS S653T mutant [4]; [16]
  Ki: 66 ± 5.64 nM
AtAHAS S653T mutant [4]; [17]
  Ki: 66 ± 5.6 nM
AtAHAS W574L mutant [5]; [18]
  Ki: 39300 ± 3900 nM

## COc1cnc(OC)n2nc(NS(=O)(=O)c3c(OCC(F)F)cccc3C(F)(F)F)nc12 [PS, penoxsulam]
AtAHAS P197L mutant [2]; [12]
  Ki: 81.9 ± 7.26 nM
AtAHAS P197L mutant [2]; [13]
  Ki: 82 ± 7 nM
AtAHAS P197T mutant [3]; [15]
  Ki: 85 ± 6.3 nM
AtAHAS S653T mutant [4]; [16]
  Ki: 5.04 ± 2.24 nM
AtAHAS S653T mutant [4]; [17]
  Ki: 5 ± 2.2 nM
AtAHAS W574L mutant [5]; [19]
  Ki: 67100 ± 2970 nM
AtAHAS W574L mutant [5]; [18]
  Ki: 67100 ± 3000 nM
AtAHAS W574L mutant [5]; W574L vs WT
  increase in Ki / loss of affinity compared to WT: 35,000 fold
WT AtAHAS [6]
  kiapp/k3 (efficiency of accumulative inhibition): 87
WT AtAHAS [6]; 160 mM pyruvate, 30 °C, ± SEM
  k3 (rate of recovery): 0.014 ± 0.002 min⁻¹
  kiapp (apparent rate of enzyme inactivation): 1.22 ± 0.09 min⁻¹
WT AtAHAS [6]; [20]
  k3, single progress curve (Supplementary Figure 8): 0.017 min⁻¹ and 0.011 min⁻¹ and 0.013 min⁻¹
  kiapp, single progress curve (Supplementary Figure 8): 1.4 min⁻¹ and 1.11 min⁻¹ and 1.17 min⁻¹
AtAHAS P197L mutant [7]; 160 mM pyruvate, 30 °C
  k3 (rate of recovery): NAI
  kiapp (apparent rate of enzyme inactivation): NAI
AtAHAS P197L mutant [7]
  kiapp/k3 (efficiency of accumulative inhibition): NAI
AtAHAS P197T mutant [8]; 160 mM pyruvate, 30 °C
  k3 (rate of recovery): NAI
  kiapp (apparent rate of enzyme inactivation): NAI
AtAHAS P197T mutant [8]
  kiapp/k3 (efficiency of accumulative inhibition): NAI
AtAHAS S653T mutant [9]; S653T
  kiapp/k3 (efficiency of accumulative inhibition): 126
AtAHAS S653T mutant [9]; S653T vs WT
  efficiency of accumulative inhibition (kiapp/k3) compared to WT (in words): increased
AtAHAS S653T mutant [9]; [21]
  k3 (rate of recovery): 0.015 ± 0.001 min⁻¹
  kiapp (apparent rate of enzyme inactivation): 1.89 ± 0.12 min⁻¹
AtAHAS S653T mutant [9]; [22]
  k3, single progress curve (Supplementary Figure 8): 0.013 min⁻¹ and 0.016 min⁻¹ and 0.015 min⁻¹
  kiapp, single progress curve (Supplementary Figure 8): 1.78 min⁻¹ and 2.1 min⁻¹ and 1.71 min⁻¹
AtAHAS W574L mutant [10]; 160 mM pyruvate, 30 °C
  k3 (rate of recovery): NAI
  kiapp (apparent rate of enzyme inactivation): NAI
AtAHAS W574L mutant [10]
  kiapp/k3 (efficiency of accumulative inhibition): NAI
WT AtAHAS [11]; ref Lonhienne et al.[11]
  Ki: 1.9 ± 0.9 nM

## COc1cc(OC)nc(Sc2cccc(Cl)c2C(=O)O)n1 [PTB, pyrithiobac]
AtAHAS P197L mutant [2]; [12]
  Ki: 1950 ± 194 nM
AtAHAS P197L mutant [2]; [13]
  Ki: 2000 ± 200 nM
AtAHAS P197T mutant [3]; [14]
  Ki: 1460 ± 282 nM
AtAHAS P197T mutant [3]; [15]
  Ki: 1500 ± 300 nM
AtAHAS S653T mutant [4]; [16]
  Ki: 218 ± 15.8 nM
AtAHAS S653T mutant [4]; [17]
  Ki: 218 ± 15.8 nM
AtAHAS W574L mutant [5]; [19]
  Ki: 91200 ± 8190 nM
AtAHAS W574L mutant [5]; [18]
  Ki: 91200 ± 8200 nM
WT AtAHAS [11]; ref Garcia et al.[13]
  Ki: 179 ± 12 nM
